Measurements: the supplement of paper PMC10627819

How the values were obtained:
[1] = system: B. subtilis 168; assay: fitness (endpoint OD595 vs no drug) (fraction); higher = more growth
Summary of the method: (§1)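 Growth medium was TSB, LB Lennox or CY, and plates were kept at 37 °C. Inoculation was at OD595 0.01 in 384-well plates, at 30 µl per well or 55 µl for S. pneumoniae. OD595 was monitored every 30 min for 14 h and background-subtracted using the first reading. Fitness is the optical density on entering stationary phase divided by the robust mean of no-drug controls, with values capped at 1.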

[2] = system: S. aureus Newman; assay: as above
Summary of the method: as §1

[3] = system: S. pneumoniae D39V; assay: as above
Summary of the method: as §1

[4] = system: B. subtilis 168; assay: Bliss interaction score (quartile over a dose matrix) (fitness difference); higher = more antagonism (negative = synergy)
Summary of the method: (§2)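 Fitness was derived from optical density at entry into stationary phase, divided by the robust mean of the no-drug wells on the same plate. That reading was taken as OD595, and the ratio was capped at 1. Single-drug fitness was inferred from the combination data. The Bliss score, observed fitness minus the expected product of single-drug fitness, was summarised as quartiles over technical, biological and donor/recipient replicates.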

[5] = system: S. aureus DSM 20231; assay: as above
Summary of the method: as §2

[6] = system: S. aureus Newman; assay: as above
Summary of the method: as §2

[7] = system: S. pneumoniae D39V; assay: as above
Summary of the method: as §2
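For Bliss interaction score (quartile over a dose matrix) in this document: first quartile when negative (synergy) and third quartile when positive (antagonism).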

CN[C@@H]1[C@H](O[C@H]2[C@H](O[C@H]3[C@H](O)[C@@H](O)[C@H](N=C(N)N)[C@@H](O)[C@@H]3N=C(N)N)O[C@@H](C)[C@]2(O)C=O)O[C@@H](CO)[C@H](O)[C@H]1O [Streptomycin] + CN(C)c1cc(NC(=O)CNC(C)(C)C)c(O)c2c1C[C@H]1C[C@H]3[C@H](N(C)C)C(O)=C(C(N)=O)C(=O)[C@@]3(O)C(O)=C1C2=O [Tigecycline]
fitness
Conditions | partner 0.039 µg/mL | partner 0.078 µg/mL | partner 0.156 µg/mL | partner 0.65 µg/mL | partner 1.3 µg/mL | partner 2.6 µg/mL
[1], first compound 2 µg/mL | 0.974 | 0.985 | 0.968 | – | – | –
[2], first compound 1 µg/mL | 0.94 | 0.986 | 0.971 | – | – | –
[2], first compound 2 µg/mL | 0.966 | 0.95 | 0.989 | – | – | –
[3], first compound 2 µg/mL | – | – | – | 0.96 | 0.973 | 0.891
[3], first compound 4 µg/mL | – | – | – | 0.968 | 0.989 | 0.962
[3], first compound 8 µg/mL | – | – | – | 0.88 | 0.938 | 0.914

fitness, one replicate
Conditions | partner 0.125 µg/mL | partner 0.25 µg/mL | partner 0.5 µg/mL | partner 0.65 µg/mL | partner 1.3 µg/mL | partner 2.6 µg/mL
[1], first compound 2 µg/mL | 0.98 | 0.955 | 0.951 | – | – | –
[1], first compound 4 µg/mL | 0.982 | 0.914 | ≥ 1 | – | – | –
[1], first compound 8 µg/mL | 0.481 | 0.474 | 0.519 | – | – | –
[3], first compound 16 µg/mL | – | – | – | 0.866 | 0.81 | 0.829

Conditions | Bliss interaction score
[4] | 0.145
[5] | 0.064
[6] | 0.0427
[7] | 0.0816

CN[C@@H]1[C@H](O[C@H]2[C@H](O[C@H]3[C@H](O)[C@@H](O)[C@H](N=C(N)N)[C@@H](O)[C@@H]3N=C(N)N)O[C@@H](C)[C@]2(O)C=O)O[C@@H](CO)[C@H](O)[C@H]1O [Streptomycin] + CN[C@H](CC(C)C)C(=O)N[C@H]1C(=O)N[C@@H](CC(N)=O)C(=O)N[C@H]2C(=O)N[C@H]3C(=O)N[C@H](C(=O)N[C@H](C(=O)O)c4cc(O)cc(O)c4-c4cc3ccc4O)[C@H](O)c3ccc(c(Cl)c3)Oc3cc2cc(c3O[C@@H]2O[C@H](CO)[C@@H](O)[C@H](O)[C@H]2O[C@H]2C[C@](C)(N)[C@H](O)[C@H](C)O2)Oc2ccc(cc2Cl)[C@H]1O [Vancomycin]
fitness
Conditions | first compound 1 µg/mL | first compound 2 µg/mL | first compound 4 µg/mL | first compound 8 µg/mL
[2], partner 0.1875 µg/mL | 0.959 | 0.941 | – | –
[2], partner 0.375 µg/mL | 0.952 | 0.946 | – | –
[2], partner 0.75 µg/mL | 0.978 | 0.944 | – | –
[3], partner 0.03125 µg/mL | – | 0.978 | 0.956 | 0.941
[3], partner 0.0625 µg/mL | – | 0.921 | 0.969 | 0.913
[3], partner 0.125 µg/mL | – | 0.942 | 0.942 | –
[3], partner 0.25 µg/mL | – | – | 0.704 | 0.691
[3], partner 0.5 µg/mL | – | – | 0.0741 | 0.0434

fitness, [3], one replicate
Conditions | partner 0.125 µg/mL | partner 0.25 µg/mL | partner 0.5 µg/mL
first compound 2 µg/mL | – | 0.422 | 0.0318
first compound 16 µg/mL | 0.825 | 0.112 | 0.0914

Conditions | Bliss interaction score
[4] | -0.0393
[5] | 0.0918
[6] | 0.055
[7] | 0.088

CN[C@@H]1[C@H](O[C@H]2[C@H](O[C@H]3[C@H](O)[C@@H](O)[C@H](N=C(N)N)[C@@H](O)[C@@H]3N=C(N)N)O[C@@H](C)[C@]2(O)C=O)O[C@@H](CO)[C@H](O)[C@H]1O [Streptomycin] + Cn1nnc(-c2ccc(-c3ccc(N4C[C@H](CO)OC4=O)cc3F)cn2)n1 [Tedizolid]
fitness
Conditions | partner 0.03125 µg/mL | partner 0.0625 µg/mL | partner 0.125 µg/mL | partner 0.25 µg/mL | partner 0.5 µg/mL
[2], first compound 1 µg/mL | – | 0.928 | 0.767 | – | –
[3], first compound 2 µg/mL | 0.896 | 0.952 | 0.811 | – | –
[3], first compound 4 µg/mL | 0.898 | 0.886 | 0.788 | 0.739 | 0.336
[3], first compound 8 µg/mL | 0.893 | 0.912 | 0.829 | 0.732 | 0.353

fitness, [3], one replicate
Conditions | partner 0.125 µg/mL | partner 0.25 µg/mL | partner 0.5 µg/mL
first compound 2 µg/mL | – | 0.748 | 0.373
first compound 16 µg/mL | 0.695 | 0.531 | 0.236

Conditions | Bliss interaction score
[4] | 0.189
[5] | 0.155
[6] | -0.188
[7] | -0.057

CC[C@H](C)[C@H](N)C1=N[C@H](C(=O)N[C@@H](CC(C)C)C(=O)N[C@H](CCC(=O)O)C(=O)N[C@H](C(=O)N[C@H]2CCCCNC(=O)[C@H](CC(N)=O)NC(=O)[C@@H](CC(=O)O)NC(=O)[C@H](Cc3cnc[nH]3)NC(=O)[C@@H](Cc3ccccc3)NC(=O)[C@H]([C@@H](C)CC)NC(=O)[C@@H](CCCN)NC2=O)[C@@H](C)CC)CS1 [Bacitracin] + Cc1ncc([N+](=O)[O-])n1CCO [Metronidazole]
fitness, main component drawn
Conditions | partner 0.625 µg/mL | partner 0.781 µg/mL | partner 1.25 µg/mL | partner 1.562 µg/mL | partner 2.5 µg/mL | partner 3.124 µg/mL
[1], first compound 37.5 µg/mL | 0.956 | – | 0.931 | – | 0.902 | –
[1], first compound 75 µg/mL | 0.964 | – | 0.931 | – | 0.903 | –
[1], first compound 150 µg/mL | – | – | – | – | 0.811 | –
[2], first compound 18.75 µg/mL | 0.741 | 0.702 | 0.757 | 0.716 | 0.743 | 0.687
[2], first compound 37.5 µg/mL | 0.308 | 0.21 | 0.243 | 0.243 | 0.181 | 0.26
[2], first compound 75 µg/mL | 0.0054 | 0.03 | 0.0112 | 0.0279 | 0.0054 | 0.0683

main component drawn
Conditions | Bliss interaction score
[4] | 0.103
[5] | 0.0734
[6] | 0.0714
[7] | 0.127

CC[C@H](C)[C@H](N)C1=N[C@H](C(=O)N[C@@H](CC(C)C)C(=O)N[C@H](CCC(=O)O)C(=O)N[C@H](C(=O)N[C@H]2CCCCNC(=O)[C@H](CC(N)=O)NC(=O)[C@@H](CC(=O)O)NC(=O)[C@H](Cc3cnc[nH]3)NC(=O)[C@@H](Cc3ccccc3)NC(=O)[C@H]([C@@H](C)CC)NC(=O)[C@@H](CCCN)NC2=O)[C@@H](C)CC)CS1 [Bacitracin] + CC1=C(C(=O)O)N2C(=O)[C@@H](NC(=O)[C@H](N)c3ccccc3)[C@H]2SC1 [Cephalexin]
fitness, main component drawn
Conditions | partner 0.125 µg/mL | partner 0.25 µg/mL | partner 0.5 µg/mL | partner 1 µg/mL
[1], first compound 37.5 µg/mL | 0.922 | 0.824 | 0.838 | –
[1], first compound 75 µg/mL | 0.884 | 0.869 | 0.904 | –
[1], first compound 150 µg/mL | 0.72 | – | – | –
[2], first compound 18.75 µg/mL | – | 0.798 | 0.785 | 0.791
[2], first compound 75 µg/mL | – | 0.0499 | 0.0405 | 0.045

[1], partner 1 µg/mL, one replicate, main component drawn
Conditions | fitness
first compound 37.5 µg/mL | 0.874
first compound 75 µg/mL | 0.886
first compound 150 µg/mL | 0.53

main component drawn
Conditions | Bliss interaction score
[4] | 0.0854
[5] | 0.0487
[6] | 0.129
[7] | -0.0987

CC[C@H](C)[C@H](N)C1=N[C@H](C(=O)N[C@@H](CC(C)C)C(=O)N[C@H](CCC(=O)O)C(=O)N[C@H](C(=O)N[C@H]2CCCCNC(=O)[C@H](CC(N)=O)NC(=O)[C@@H](CC(=O)O)NC(=O)[C@H](Cc3cnc[nH]3)NC(=O)[C@@H](Cc3ccccc3)NC(=O)[C@H]([C@@H](C)CC)NC(=O)[C@@H](CCCN)NC2=O)[C@@H](C)CC)CS1 [Bacitracin] + O=C(O)c1cn(C2CC2)c2cc(N3CCNCC3)c(F)cc2c1=O [Ciprofloxacin]
fitness, main component drawn
Conditions | first compound 18.75 µg/mL | first compound 37.5 µg/mL | first compound 75 µg/mL | first compound 150 µg/mL
[1], partner 0.0098 µg/mL | – | 0.88 | 0.889 | 0.897
[1], partner 0.0195 µg/mL | – | 0.718 | 0.659 | 0.559
[1], partner 0.039 µg/mL | – | 0.201 | 0.0773 | 0.0355
[2], partner 0.0375 µg/mL | 0.524 | 0.199 | 0.0079 | –
[2], partner 0.075 µg/mL | – | 0.0916 | 0.013 | –
[2], partner 0.15 µg/mL | 0.0536 | 0.0155 | 0.0083 | –

main component drawn
Conditions | Bliss interaction score
[4] | -0.0665
[5] | -0.0438
[6] | -0.0418
[7] | -0.13
